Consider one compound from PMC10102027, “Helquat dyes targeting G-quadruplexes as a new class of anti-HIV-1 inhibitors” (Scientific Reports, 2023).

For assay [1], the system named is G-quadruplexes in the HIV-1 LTR (G4 LTR FRET oligonucleotide). Put plainly: FRET melting assay. As to conditions: 2 μM compound, 0.2 μM oligonucleotide. The class given is binding.
Assay [2] has as its system HIV-1 LTR G-quadruplex template (G4 LTR Stop). Put plainly: Taq polymerase stop assay. The class given is biochemical. Particulars: for Fold change, all regions (A, B and C) together: normalized against control. As to the method:
To address specifically the positions in the HIV-1 promoter region that are affected by the binding of G4-stabilizing agents, we performed a Taq polymerase stop assay. The wild-type LTR oligonucleotide was extended at the […] to include a primer-annealing region and used as a template for a single-cycle Taq polymerase reaction. The elongation of the radioactively labelled primer was performed at 45 °C in the presence or absence of the tested compounds and controls.
A Taq polymerase stop assay was carried out as described in a previous study. Briefly, the primer (G4 LTR primer, Supplementary Table S1) was 5′-end labelled with [γ-^32P]ATP using T4 polynucleotide kinase at 37 °C for 30 min. The T4 polynucleotide kinase was then inactivated by incubation at 65 °C for 5 min. The radioactively labelled primer was column-purified and stored at − 20 °C for further use. The labelled primer (1.7 pmol) was annealed to the template (2.1 pmol) in the LiCaco buffer and extended with the Go Taq DNA polymerase (2U/reaction, Promega) at 45 °C for 45 min. Samples were incubated with G-quadruplex-ligands at 45 °C for 45 min before DNA polymerase addition. The reactions were stopped by a denaturing solution (80% formamide, 10% glycerol, 0.025% xylen cyanol, 0.025% bromphenol blue and 10 mM EDTA pH 8); extension products were separated on 15% denaturing gel and visualized by phosphorimaging. The pixel intensity of bands was calculated using 1D gel analysis in ImageQuant TL software version 8.1 (GE HealthCare) after automatic background subtraction by Rolling Ball method.

Setting [3] is: 2.5 µM, pixel intensity normalized against negative control.

Each structure is given as a SMILES string.

For the compound `NCCOc1cc(C(=O)Nc2cc(OCCN)c3ccccc3n2)nc(C(=O)Nc2cc(OCCN)c3ccccc3n2)c1` [PDS, pyridostatin, reference compound], the Tm in assay [1] (100 mM KCl, mean and standard error, three experiments) was 93 ± 13 °C. The ΔTm in assay [1] (average Tm minus average Tm of PBS) was found to be 42 °C. In assay [2] (1 μM), the “Fold change, all regions (A, B and C) together” value worked out at 2.0. Besides, the “Fold change, all regions (A, B and C) together” value in assay [2] (2.5 μM) stood at 2.4. In assay [2] (setting [3]), the “Fold change: A (G-patch 6′)” value is 2.6, the “Fold change: B (G-patch 6)” value stood at 2.7 and the “Fold change: C (G-patch 5)” value came out at 1.6.

The ΔTm is the change in melting temperature against a reference sample.
